The source of these data is patent US20260199484A1, “PROTAC DEGRADERS OF MLLT1 AND/OR MLLT3” (DARK BLUE THERAPEUTICS LTD, priority 2024, published 2026).

The target in this test is T1, MLLT1 (Homo sapiens, UniProt Q03111).
T1 sequence (Q03111 1-559): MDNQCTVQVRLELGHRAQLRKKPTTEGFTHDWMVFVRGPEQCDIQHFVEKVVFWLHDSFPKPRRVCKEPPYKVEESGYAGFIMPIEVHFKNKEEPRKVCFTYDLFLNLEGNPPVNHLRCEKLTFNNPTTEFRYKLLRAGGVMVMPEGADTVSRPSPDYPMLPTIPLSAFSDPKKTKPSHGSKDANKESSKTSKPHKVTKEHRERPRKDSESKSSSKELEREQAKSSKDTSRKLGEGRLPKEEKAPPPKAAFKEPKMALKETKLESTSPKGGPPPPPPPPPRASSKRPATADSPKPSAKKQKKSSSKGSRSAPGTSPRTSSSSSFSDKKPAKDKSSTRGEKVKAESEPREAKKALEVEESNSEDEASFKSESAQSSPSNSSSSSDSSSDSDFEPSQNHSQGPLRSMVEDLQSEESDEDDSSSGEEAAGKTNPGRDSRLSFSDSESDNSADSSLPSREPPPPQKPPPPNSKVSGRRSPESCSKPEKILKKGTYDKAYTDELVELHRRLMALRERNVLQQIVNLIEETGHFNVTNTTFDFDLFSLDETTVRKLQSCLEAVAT
Briefly: MLLT1 degradation assay in MV4-11 cells (JESS, 24 h). Type of test: cell-based. Details: endogenous in cells; host or cells: MV4-11 (ATCC CRL-9591). The following applies: vs DMSO control. The method, then:
MLLT1 degradation efficacy of compounds was tested in an automated chemiluminescent detection system (JESS, Cat #004-650). MV4-11 (#CRL-9591, ATCC) cells were seeded at a density of 1.2 million cells/well in a non-treated 6-well cell culture plate in 2.4 mL of complete medium (IMDM+10% FBS+1× Penicillin-Streptomycin). 10 mM DMSO stocks were prepared, and cells were treated with three concentrations of test compounds viz. 1000, 100 and 10 nM at a final DMSO concentration of 0.1% and incubated for 24 h at 37° C., 5% CO2. Post incubation, cells were centrifuged, washed with HBSS and lysed in 70 μL of RIPA buffer supplemented with Protease inhibitors (sc-24948; Santa Cruz). Subsequently, protein estimation was done using BCA protein assay kit (23225; Pierce). 4 ug protein lysate (4 uL of 1 ug/uL lysate) was loaded into each well of the JESS cartridge (SM-W001; Bio-techne) and the JESS run was performed using 1:900 dilution of anti-human MLLT1 antibody (14893; Cell signaling technology) and 1:1200 dilution of anti-human GAPDH antibody (2118; Cell signaling technology) with anti-rabbit secondary detection module (DM-001; Bio-Techne). Post run, data were analysed using “Compass for SW” software for chemiluminescent detection. The peak area for each band was used for the calculation of MLLT1 degradation with respect to DMSO control. Data is shown as “MLLT1% degradation”. • Category A: A≥75% degradation • Category B: 50%≤B<75% degradation • Category C: 25%≤C<50% degradation • Category D: D<25% degradation

As for `Cc1nn(CCCCCCCC#Cc2ccc(C(=O)N[C@H]3CCC(=O)NC3=O)nc2)c2cc(C(=O)Nc3cc4[nH]c([C@H]5CCCN5C)cc4cn3)ccc12` [Example 41, 1-(9-(6-(((S)-2,6-dioxopiperidin-3-yl)carbamoyl)pyridin-3-yl)non-8-yn-1-yl)-3-methyl-N-(2-((R)-1-methylpyrrolidin-2-yl)-1H-pyrrolo[3,2-c]pyridin-6-yl)-1H-indazole-6-carboxamide], the “MLLT1% Degradation @ 0.01 μM” value is “D (Category D: D<25% degradation)”, the “MLLT1% Degradation @ 0.1 μM” value is “C (Category C: 25%≤C<50% degradation)” and the “MLLT1% Degradation @ 1 μM” value was “B (Category B: 50%≤B<75% degradation)”.

For the compound `Cc1nn(CCCCCCCC#Cc2ccnc(C(=O)N[C@H]3CCC(=O)NC3=O)c2)c2cc(C(=O)Nc3cc4[nH]c([C@H]5CCCN5C)cc4cn3)ccc12` [Example 43, 1-(9-(2-(((S)-2,6-dioxopiperidin-3-yl)carbamoyl)pyridin-4-yl)non-8-yn-1-yl)-3-methyl-N-(2-((R)-1-methylpyrrolidin-2-yl)-1H-pyrrolo[3,2-c]pyridin-6-yl)-1H-indazole-6-carboxamide], the “MLLT1% Degradation @ 0.01 μM” value is on record as “C (Category C: 25%≤C<50% degradation)”, the “MLLT1% Degradation @ 0.1 μM” value is on record as “B (Category B: 50%≤B<75% degradation)” and the “MLLT1% Degradation @ 1 μM” value is recorded as “A (Category A: A≥75% degradation)”.

Consider `Cc1nn(CCCCCOCC#Cc2cccc3c2CN(C2CCC(=O)NC2=O)C3=O)c2cc(C(=O)Nc3cc4[nH]c([C@H]5CCCN5C)cc4cn3)ccc12` (stereo partly drawn) [Example 49, 1-(5-((3-(2-(2,6-dioxopiperidin-3-yl)-1-oxoisoindolin-4-yl)prop-2-yn-1-yl)oxy)pentyl)-3-methyl-N-(2-((R)-1-methylpyrrolidin-2-yl)-1H-pyrrolo[3,2-c]pyridin-6-yl)-1H-indazole-6-carboxamide], for which the “MLLT1% Degradation @ 0.01 μM” value is given as “A (Category A: A≥75% degradation)”, the “MLLT1% Degradation @ 0.1 μM” value was “A (Category A: A≥75% degradation)” and the “MLLT1% Degradation @ 1 μM” value is on record as “A (Category A: A≥75% degradation)”.

In the case of `Cc1nn(CCOCCCCC#Cc2cccc3c2CN(C2CCC(=O)NC2=O)C3=O)c2cc(C(=O)Nc3cc4[nH]c([C@H]5CCCN5C)cc4cn3)ccc12` (stereo partly drawn) [Example 50, 1-(2-((6-(2-(2,6-dioxopiperidin-3-yl)-1-oxoisoindolin-4-yl)hex-5-yn-1-yl)oxy)ethyl)-3-methyl-N-(2-((R)-1-methylpyrrolidin-2-yl)-1H-pyrrolo[3,2-c]pyridin-6-yl)-1H-indazole-6-carboxamide], the “MLLT1% Degradation @ 0.01 μM” value is “A (Category A: A≥75% degradation)”, the “MLLT1% Degradation @ 0.1 μM” value was “A (Category A: A≥75% degradation)” and the “MLLT1% Degradation @ 1 μM” value is “A (Category A: A≥75% degradation)”.

Take `Cc1nn(CCCCCCCC#Cc2cccc(C(=O)N[C@H]3CCC(=O)NC3=O)c2F)c2cc(C(=O)Nc3cc4[nH]c([C@H]5CCCN5C)cc4cn3)ccc12` [Example 51, 1-(9-(3-(((S)-2,6-dioxopiperidin-3-yl)carbamoyl)-2-fluorophenyl)non-8-yn-1-yl)-3-methyl-N-(2-((R)-1-methylpyrrolidin-2-yl)-1H-pyrrolo[3,2-c]pyridin-6-yl)-1H-indazole-6-carboxamide]: the “MLLT1% Degradation @ 0.01 μM” value is reported as “C (Category C: 25%≤C<50% degradation)”, the “MLLT1% Degradation @ 0.1 μM” value was “B (Category B: 50%≤B<75% degradation)” and the “MLLT1% Degradation @ 1 μM” value was “A (Category A: A≥75% degradation)”.

On to `Cc1nn(CCCCCCCC#Cc2cc3c(cc2F)C(=O)N(C2CCC(=O)NC2=O)C3)c2cc(C(=O)Nc3cc4[nH]c([C@H]5CCCN5C)cc4cn3)ccc12` (stereo partly drawn) [Example 60, 1-(9-(2-(2,6-dioxopiperidin-3-yl)-6-fluoro-1-oxoisoindolin-5-yl)non-8-yn-1-yl)-3-methyl-N-(2-((R)-1-methylpyrrolidin-2-yl)-1H-pyrrolo[3,2-c]pyridin-6-yl)-1H-indazole-6-carboxamide], for which the “MLLT1% Degradation @ 0.01 μM” value was “C (Category C: 25%≤C<50% degradation)”, the “MLLT1% Degradation @ 0.1 μM” value is on record as “B (Category B: 50%≤B<75% degradation)” and the “MLLT1% Degradation @ 1 μM” value is recorded as “A (Category A: A≥75% degradation)”.

Turning to `Cc1nn(CCCCCCCC#Cc2cccc(C3CCC(=O)NC3=O)n2)c2cc(C(=O)Nc3cc4[nH]c([C@H]5CCCN5C)cc4cn3)ccc12` (stereo partly drawn) [Example 62, 1-(9-(6-(2,6-dioxopiperidin-3-yl)pyridin-2-yl)non-8-yn-1-yl)-3-methyl-N-(2-((R)-1-methylpyrrolidin-2-yl)-1H-pyrrolo [3,2-c]pyridin-6-yl)-1H-indazole-6-carboxamide], the “MLLT1% Degradation @ 0.01 μM” value is listed as “B (Category B: 50%≤B<75% degradation)”, the “MLLT1% Degradation @ 0.1 μM” value is on record as “B (Category B: 50%≤B<75% degradation)” and the “MLLT1% Degradation @ 1 μM” value was “A (Category A: A≥75% degradation)”.

For `Cc1nn(CCCCCCCC#Cc2cccc(N3CCC(=O)NC3=O)c2F)c2cc(C(=O)Nc3cc4[nH]c([C@H]5CCCN5C)cc4cn3)ccc12` [Example 63, (R)-1-(9-(3-(2,4-dioxotetrahydropyrimidin-1 (2H)-yl)-2-fluorophenyl)non-8-yn-1-yl)-3-methyl-N-(2-(1-methylpyrrolidin-2-yl)-1H-pyrrolo [3,2-c]pyridin-6-yl)-1H-indazole-6-carboxamide], the “MLLT1% Degradation @ 0.01 μM” value is on record as “D (Category D: D<25% degradation)”, the “MLLT1% Degradation @ 0.1 μM” value is on record as “B (Category B: 50%≤B<75% degradation)” and the “MLLT1% Degradation @ 1 μM” value is recorded as “A (Category A: A≥75% degradation)”.

As to `Cc1nn(CCCCCCCC#Cc2cc3c(cc2F)c(N2CCC(=O)NC2=O)nn3C)c2cc(C(=O)Nc3cc4[nH]c([C@H]5CCCN5C)cc4cn3)ccc12` [Example 65, (R)-1-(9-(3-(2,4-dioxotetrahydropyrimidin-1 (2H)-yl)-5-fluoro-1-methyl-1H-indazol-6-yl)non-8-yn-1-yl)-3-methyl-N-(2-(1-methylpyrrolidin-2-yl)-1H-pyrrolo[3,2-c]pyridin-6-yl)-1H-indazole-6-carboxamide], the “MLLT1% Degradation @ 0.01 μM” value is recorded as “C (Category C: 25%≤C<50% degradation)”, the “MLLT1% Degradation @ 0.1 μM” value is “B (Category B: 50%≤B<75% degradation)” and the “MLLT1% Degradation @ 1 μM” value is “A (Category A: A≥75% degradation)”.

Take `Cc1nn(CCCCCCC2CCN(c3cccc(C(=O)N[C@H]4CCC(=O)NC4=O)n3)CC2)c2cc(C(=O)Nc3cc4[nH]c([C@H]5CCCN5C)cc4cn3)ccc12` [Example 73, 1-(6-(1-(6-(((S)-2,6-dioxopiperidin-3-yl)carbamoyl)pyridin-2-yl)piperidin-4-yl)hexyl)-3-methyl-N-(2-((R)-1-methylpyrrolidin-2-yl)-1H-pyrrolo[3,2-c]pyridin-6-yl)-1H-indazole-6-carboxamide]: the “MLLT1% Degradation @ 0.01 μM” value is “B (Category B: 50%≤B<75% degradation)”, the “MLLT1% Degradation @ 0.1 μM” value was “A (Category A: A≥75% degradation)” and the “MLLT1% Degradation @ 1 μM” value is recorded as “A (Category A: A≥75% degradation)”.
